Columns and labels:
[1] = tested on: catecholamines; assay: Catecholamine levels in rat brain and heart after dosing (HPLC with electrochemical detection); type: in vivo, rats; conditions: for selectivity (brain catecholamines versus heart catecholamines and 5-HT): compared with the methyl ester
Procedure: The animals are kept on a constant 12 hour day-night cycle, and body weights are measured daily. The animals are sacrificed by decapitation 12 to 24 hours after receiving the last dose of the test compound. Control animals receive the vehicle alone. Rats in single dose tests were fasted for 24 hours before administration of the test compound whilst rats in multiple dose tests were allowed free access to food and water. Immediately after death, the brain and heart (where appropriate) are removed and separately homogenized either by 50 ml phosphate buffer pH 6.8 for AADC determination or in icecold 0.4 M HC104 containing 0.05% (w/v) EDTA and 0.1% (w/v) sodium bisulfite for catecholamine determination. AADC activity is determined by the ^14C02 trapping method of J. Christenson, Archs. Biochem. Biophys. […] Catecholamines are determined by centrifuging the homogenate, adding the supernatant to alumina buffered to pH 8.0-8.4 to absorb the catecholamines, re-extracting the catecholamines from the alumina with 2.1 M HC104 and determining the catecholamines in the extracts using reversed-phase ion-pair HPLC with electrochemical detection.

[2] = target: T1, aromatic amino acid decarboxylase (AADC) (Rattus norvegicus, UniProt P14173); assay: AADC activity in rat organ homogenates after dosing (14CO2 trapping method, DL-[1-14C]-dopa as substrate); type: in vivo, rats
T1 construct: the brain and heart (where appropriate) are removed and separately homogenized; from tissue; host or cells: rat brain and heart homogenates
T1 sequence (P14173 1-480): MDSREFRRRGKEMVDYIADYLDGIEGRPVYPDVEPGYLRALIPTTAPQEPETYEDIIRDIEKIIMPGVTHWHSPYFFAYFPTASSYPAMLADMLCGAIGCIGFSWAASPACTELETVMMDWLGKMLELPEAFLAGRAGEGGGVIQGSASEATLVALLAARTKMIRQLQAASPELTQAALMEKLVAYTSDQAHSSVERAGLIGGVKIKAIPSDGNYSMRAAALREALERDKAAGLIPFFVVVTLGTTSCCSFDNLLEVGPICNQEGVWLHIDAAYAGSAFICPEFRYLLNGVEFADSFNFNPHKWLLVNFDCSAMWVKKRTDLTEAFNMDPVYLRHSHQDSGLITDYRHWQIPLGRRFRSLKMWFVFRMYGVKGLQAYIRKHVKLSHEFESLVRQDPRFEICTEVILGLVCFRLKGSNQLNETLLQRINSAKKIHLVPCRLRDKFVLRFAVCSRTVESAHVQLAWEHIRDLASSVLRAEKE
Procedure: (§1) The animals are kept on a constant 12 hour day-night cycle, and body weights are measured daily. The animals are sacrificed by decapitation 12 to 24 hours after receiving the last dose of the test compound. Control animals receive the vehicle alone. Rats in single dose tests were fasted for 24 hours before administration of the test compound whilst rats in multiple dose tests were allowed free access to food and water.
Immediately after death, the brain and heart (where appropriate) are removed and separately homogenized either by 50 ml phosphate buffer pH 6.8 for AADC determination or in icecold 0.4 M HC104 containing 0.05% (w/v) EDTA and 0.1% (w/v) sodium bisulfite for catecholamine determination. AADC activity is determined by the ^14C02 trapping method of J. Christenson, Archs. Biochem. Biophys. 141, 356 (1970) using DL-[1-14C] -dopa as the substrate. Catecholamines are determined by centrifuging the homogenate, adding the supernatant to alumina buffered to pH 8.0-8.4 to absorb the catecholamines, re-extracting the catecholamines from the alumina with 2.1 M HC104 and determining the catecholamines in the extracts using reversed-phase ion-pair HPLC with electrochemical detection.

[3] = tested on: Serotonin (5-HT); assay: Serotonin (5-HT) levels in rat organs after dosing (standard techniques); type: in vivo, rats
Procedure: as §1
In the brain, doses of 10 mg/kg and 200 mg/kg produced a 10% reduction and a 70-80% reduction of AADC activity, respectively. […] In the heart, no reduction of norepinephrine is noted up to a dose of 200 mg/kg. When tested after multiple administration of 10, 25, or 50 mg/kg given daily for six days in rats sacrificed 24 hours after the sixth dose, the compound produced a 50% decrease in brain norephinephrine at a dose of 10 mg/kg (daily). […] Serotonin (5-HT) levels, as assessed by standard techniques, are not altered in the brain even at the highest dose tested.

[4] = Stability of the compound; type: physicochemical
[5] = Solubility in water; type: physicochemical; conditions: neutral pH
[6] = target: T2, AADC (Homo sapiens, UniProt P20711); assay: AADC inhibition, general statement (method not given)
T2 sequence (P20711 1-480): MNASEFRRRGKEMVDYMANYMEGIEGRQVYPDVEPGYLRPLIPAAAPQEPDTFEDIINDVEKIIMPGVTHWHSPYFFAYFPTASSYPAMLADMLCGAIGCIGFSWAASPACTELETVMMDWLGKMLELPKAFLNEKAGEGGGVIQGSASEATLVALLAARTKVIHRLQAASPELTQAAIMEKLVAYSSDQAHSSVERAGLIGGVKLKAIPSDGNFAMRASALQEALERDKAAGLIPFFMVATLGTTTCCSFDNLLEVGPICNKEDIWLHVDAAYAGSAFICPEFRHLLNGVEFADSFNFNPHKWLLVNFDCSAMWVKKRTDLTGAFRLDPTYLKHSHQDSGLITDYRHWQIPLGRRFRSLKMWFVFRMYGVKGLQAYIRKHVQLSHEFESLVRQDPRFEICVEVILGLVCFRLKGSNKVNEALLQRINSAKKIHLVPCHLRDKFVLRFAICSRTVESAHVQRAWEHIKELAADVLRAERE

[7] = heart, up to a dose of 200 mg/kg

## NC(CF)(Cc1ccc(O)c(O)c1)C(=O)O (centres unmarked) [Fluoromethyl dopa, reference compound]
[1]
  selectivity (brain catecholamines versus heart catecholamines and 5-HT): does not exhibit the selectivity

## COC(=O)[C@@H]1[C@H]2C[C@H]3c4[nH]c5ccccc5c4CCN3C[C@@H]2CC[C@@H]1O [Yohimbine, reference compound]
[1]; yohimbine alone
  metabolite MOPEG-sulfate: increase
  norepinephrine: decrease

## COC(=O)C(N)(CF)Cc1ccc(O)cc1 (centres unmarked) [methyl 2-amino-2-fluoromethyl-3-(4-hydroxyphenyl)propionate]
[2]; animals pretreated with haloperidol, compared with non-haloperidol treated animals
  inhibition of AADC activity: more pronounced
[2]; brain, co-administration of -methyl tyrosine (inhibitor of tyrosine hydroxylase)
  extent of inhibition of AADC activity in the brain: reduces the extent of inhibition
[2]; [7]
  AADC activity in the heart: not reduced significantly
[2]; rat, brain, dose 10 mg/kg, read-out: reduction of AADC activity
  inhibition at 10 mg/kg: 10%
[3]; brain and heart, summary statement
  endogenous 5-HT levels in the brain and heart: substantially unaltered
[3]; brain, multiple administration, even at the highest dose tested
  Serotonin (5-HT) levels in the brain: not altered
[1]; animals treated for 2 weeks with 10 mg/kg methyl ester, same dose of yohimbine
  additional decrease of norepinephrine produced by yohimbine: no longer produces an additional decrease
[1]; brain, 10 mg/kg daily for six days, sacrificed 24 hours after the sixth dose
  decrease in brain norephinephrine: 50%
[1]; brain, 50 mg/kg daily for six days
  Brain dopamine decreased: 50%
[1]; brain, dose 10 mg/kg
  Brain norepinephrine decreased: 15-20%
[1]; brain, dose 50 mg/kg
  dopamine decreased: decreased significantly
[1]; brain, dose 200 mg/kg
  Brain norepinephrine decreased: 50%
  dopamine decreased: 75%
[1]; brain, higher doses (25 or 50 mg/kg daily for six days) compared with 10 mg/kg
  decrease in brain norephinephrine: do not give an additional response
[1]; brain, lower doses (10, 25 mg/kg daily for six days)
  Brain dopamine: no significant effect
[1]; brain, summary statement
  endogenous catecholamine levels in the brain: effective in lowering
[1]; combined with yohimbine, up to 8 days of methyl ester treatment
  decrease of norepinephrine over yohimbine: small additional decrease
[1]; heart, multiple administration (10, 25 or 50 mg/kg daily for six days), any dose
  Heart norepinephrine: not significantly changed
[1]; [7]
  reduction of norepinephrine in the heart: no reduction

## CC(C)(C)OC(=O)C(N)(CF)Cc1ccc(O)cc1 (centres unmarked) [tert-butyl 2-fluoromethyl-2-amino-3-(4-hydroxyphenyl)-propionate]
[4]
  stability: relatively unstable

## NC(CF)(Cc1ccc(O)cc1)C(=O)O (stereo not drawn) [α-fluoromethyl tyrosine, 2-fluoromethyl-2-amino-3-(4-hydroxyphenyl)-propionic acid]
[5]
  solubility in water: insoluble
[6]
  AADC inhibition: weak AADC inhibitor
[1]
  selectivity (brain catecholamines versus heart catecholamines and 5-HT): same degree of selectivity is not found
